Measurements reported in ChEMBL document CHEMBL1201862, “PubChem BioAssay data set” (2004).
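Assay format: 96-well plates, 48-hour exposure. GI50 is the concentration that inhibits growth by half.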 Activity calls are given as the source filed them. No stated cut-off is given here; in the data, active = GI50 up to about 1.1 µM and inactive = higher.

Tests used:
Experiment in all cases: growth of human tumour cells (NCI), 48 h
[1] = tested on: MOLT-4
[2] = tested on: CCRF-CEM
[3] = tested on: HCT-116
[4] = tested on: PC-3
[5] = tested on: SR
[6] = tested on: UACC-257
[7] = tested on: NCI/ADR-RES
[8] = tested on: A498
[9] = tested on: NCI-H226
[10] = tested on: DU-145
[11] = tested on: A549
[12] = tested on: SW-620
[13] = tested on: SK-MEL-5
[14] = tested on: HT-29
[15] = tested on: RPMI-8226
[16] = tested on: MCF7
[17] = tested on: BT-549
[18] = tested on: SF-539
[19] = tested on: KM12
[20] = tested on: UACC-62

Measured: GI50

O=S(=O)(O)SCCNCCCCCC1CCCCC1
inactive: [1] 8.05 µM | [2] 6.24 µM | [3] 5.05 µM | [4] 8.02 µM | [5] 8.99 µM | [6] 6.61 µM | [7] 16.7 µM | [8] 25.1 µM | [9] 11.5 µM | [10] 6.3 µM | [11] 7.8 µM | [12] 7.78 µM | [13] 15.8 µM | [14] 6.9 µM | [15] 17.1 µM | [16] 2.75 µM | [17] 14.9 µM | [18] 7.11 µM | [19] 2.79 µM | [20] 1.88 µM

Cc1nc(O)nc2nc3ccc(Cl)cc3c(NC(C)(CO)CO)c12
inactive: [1] > 40.8 µM | [2] > 26.8 µM | [3] 26.7 µM | [4] 57.9 µM | [5] 99.8 µM | [6] > 75.3 µM | [7] > 100 µM | [8] > 100 µM | [9] > 84.5 µM | [10] > 70.1 µM | [11] > 34.4 µM | [12] > 100 µM | [13] > 60 µM | [14] > 100 µM | [15] 30.8 µM | [16] > 68.4 µM | [17] 62.8 µM | [18] > 50.6 µM | [19] > 100 µM | [20] > 75.3 µM

C[C@@H]1CC[C@@]2(OC1)O[C@H]1[C@@H](O)[C@H]3[C@@H]4CC[C@H]5C[C@@H](O[C@@H]6O[C@H](CO)[C@H](O[C@@H]7O[C@H](CO)C(O)[C@H](O[C@@H]8OC[C@@H](O)[C@H](O)[C@H]8O)[C@H]7O[C@@H]7O[C@H](CO)[C@H](O)[C@H](O[C@@H]8O[C@H](CO)[C@@H](O)[C@H](O)[C@H]8O)[C@H]7O)[C@H](O)[C@H]6O)[C@H](O)C[C@]5(C)[C@H]4CC[C@]3(C)[C@H]1[C@@H]2C (stereo not given in full) [DIGITONIN]
inactive: [1] 3.9 µM | [2] 2.86 µM | [3] 1.95 µM | [4] 2.57 µM | [5] 2.37 µM | [6] 8.38 µM | [7] 3.89 µM | [8] 6.18 µM | [9] 1.51 µM | [10] 2.05 µM | [11] 2.17 µM | [12] 5.52 µM | [13] 4.5 µM | [14] 3.51 µM | [15] 3.15 µM | [16] 2.18 µM | [17] 1.63 µM | [18] 2.98 µM | [19] 2.12 µM | [20] 4 µM
